Laboratory results taken from patent US20110152225A1, “PPAR-Gamma Agonists for the Induction of Cationic Antimicrobial Peptide Expression as Immunoprotective Stimulants” (priority 2007, published 2011).

What was measured:
HD-5 = HD-5 defensin gene expression in intestinal epithelial cells (Caco-2), quantitative PCR; assay type: cell-based, human; conditions: for activation of HD-5, as determined by quantitative PCR analysis: Caco-2 cells
Method: (§1) Cultured intestinal epithelial cell lines, namely Caco-2 (of human origin) and ICcl2 (of mice origin), were treated with the GSK-3 inhibitor LiCl ([…]) or the phosphatase inhibitor calyculin (50 nM) followed or not by stimulation with the PPAR-gamma agonist such as rosiglitazone (1 microM).
(§2) The expression of defensin and known target genes of both Wnt and PPAR-gamma signaling pathways were investigated by quantitative real-time PCR. The activation of GSK3, beta-catenin, NF-kappaB, ERK1/2, SAPK/JNK and p38 was measured by specific immunoblotting.

cyclin-D1 = experiment: Expression of Wnt/Tcf/beta-catenin target gene cyclin-D1, quantitative real-time PCR; assay type: cell-based; conditions: stimulation by both calyculin and rosiglitazone
Method: as §1, §2

beta-catenin = experiment: Stability of beta-catenin, immunoblotting; assay type: cell-based; conditions: stimulation by both calyculin and rosiglitazone
Method: as §1, §2

hBD1 = hBD1 defensin mRNA expression in colonic epithelial Caco-2 cells; assay type: cell-based, human; conditions: stimulated for 24 h
Text: 5-ASA was purchased at Sigma-Aldrich (St Quentin Fallavier, France). Rosiglitazone was synthesized in the laboratory according to standard procedures. The racemic compound 34 and the two enantiomers of the compound, 34-E1 and 34-E2 were provided by Giuliani SpA (Milano, Italy). Compound were re-suspended in DMEM medium (Gibco) and adjusted at pH=7 if necessary with 10N NaOH.
The colon carcinoma cell line Caco-2 (ATCC HTB-39) was routinely grown in DMEM supplemented respectively with 10% or 20% heat-FCS, and antibiotics. Cells were grown in monolayers, incubated at 37° C. in 5% CO2 and 95% relative humidity.
Cell were stimulated by 5-ASA, R34, 34-E1 and 34-E2 for 24 h. Total RNA was isolated from cells using Rneasy kit (Macherey Nagel, Hoerdt, France) according to the manufacturer's instructions. RNA quantification was performed using spectrophotometry. After treatment at 37° C. for 30 min with 20-50 units of RNase-free DNase I (Roche Diagnostics Corporation, Indianapolis, Ind., USA), oligo-dT primers (Roche Diagnostics Corporation, Indianapolis, USA) were used to synthesize single-stranded cDNA. mRNAs were quantified using SYBR green Master Mix (Applera, Courtaboeuf, France) with human specific oligonucleotides for hBD1(S:5′-[…]-3′; AS:5′-TTgTCTGAGATGGCCTCAggTggTAAC-3′) in a GeneAmp Abiprism 7000 (Applera, Courtaboeuf, France). In each assay, calibrated and no-template controls were included. Each sample was run in triplicate. SYBR green dye intensity was analyzed using the Abiprism 7000 SDS software (Applera, Courtaboeuf, France). All results were normalized to the unaffected housekeeping gene of human β-actin (S:5′-TCACCCACACTgTgCCCATCTACg-3′; AS:5′-CAgCggAACCgCTCATTgCCAATg-3′).

LL37 = LL37 (defensin) mRNA expression in colon of healthy mice; assay type: in vivo; conditions: for induction of defensin expression / potency in defensin expression induction compared to 5-ASA: conclusion on the in vitro and in vivo results; for colon defensin (LL37) mRNA expression: healthy mice (n=5), enema during 10 days, 5-ASA 30 mM, R34, E1 and E2 1 mM
Method: […] Post-mortem, total RNA was isolated from whole mice colonic tissues using Rneasy kit (Macherey Nagel, Hoerdt, France) according to the manufacturer's instructions. RNA quantification was performed using spectrophotometry. After treatment at 37° C. for 30 min with 20-50 units of RNase-free DNase I (Roche Diagnostics Corporation, Indianapolis, Ind., USA), oligo-dT primers (Roche Diagnostics Corporation, Indianapolis, USA) were used to synthesize single-stranded cDNA. mRNAs were quantified using SYBR green Master Mix (Applera, Courtaboeuf, France) with mouse specific oligonucleotides for LL37(S:5′-gCTgATTCTTTTgACATCAgCTgTAA-3′ AS:5′-gCCAgCCgggAAATTTTCT-3′) in a GeneAmp Abiprism 7000 (Applera, Courtaboeuf, France). In each assay, calibrated and no-template controls were included. Each sample was run in triplicate. SYBR green dye intensity was analyzed using the Abiprism 7000 SDS software (Applera, Courtaboeuf, France). All results were normalized to the unaffected housekeeping gene β-actin (S:5′-gggTCAgAAggATTCCTATg-3′; AS:5′ ggTCTCAAACATgATCTggg-3′).

PPAR-gamma = PPAR-gamma mRNA expression in colon of healthy mice; assay type: in vivo; conditions: healthy mice (n=5); enema during 10 days; 5-ASA 30 mM, R34, E1 and E2 1 mM
[1] = tested on: Clostridium bacterial cultures; conditions: agar plates in aerobic and anaerobic conditions; U.S. Pat. No. 6,326,364; cited from earlier work
[2] = tested on: colonies of Lactobacillus, Enterococcus or Bacteroides; conditions: U.S. Pat. No. 6,326,364; cited from earlier work

Compound	activation of HD-5, as determined by quantitative PCR analysis (HD-5)	expression of hBD1 (human defensin-1) (hBD1)	induction of defensin expression (LL37)	colon defensin (LL37) mRNA expression (LL37)	colon PPARy mRNA expression (PPAR-gamma)	other results
CCOC(Cc1ccc(N)cc1)C(=O)O (racemic) [Compound 39, (±)-2-ethoxy-3-(4′-aminophenyl)propionic acid]	activates HD-5					
calyculin						antimicrobial (defensin) gene expression induced by PPAR-gamma activators following co-stimulation (HD-5; co-stimulation by calyculin with rosiglitazone and other PPAR-gamma activators): synergized; expression of Wnt/Tcf/beta-catenin target gene cyclin-D1 (cyclin-D1): markedly decreased; stability of the beta-catenin (beta-catenin): markedly decreased
CO[C@H](Cc1cccc(N)c1)C(=O)O [Compound 34-E2, (−) 2-R-methoxy-3-(3-aminophenyl)propionic acid]		induce the expression of hBD1	induction of defensin expression	induced	induced	potency in defensin expression induction compared to 5-ASA (LL37): higher potency; gut defensin expression induction (LL37; summary statement referring to FIGS. 8 & 9): particularly effective
[Cl-].[Li+] [LiCl, reference compound]						rosiglitazone-induced defensin gene expression (HD-5; co-stimulation with LiCl): blocked
CO[C@@H](Cc1cccc(N)c1)C(=O)O [Compound 34-E1, (+) 2-S-methoxy-3-(3-aminophenyl)propionic acid]			induction of defensin expression	induced	induced	potency in defensin expression induction compared to 5-ASA (LL37): higher potency
COc1ccc(N)cc1C(=O)NO [Compound 14, 5-amino-N-hydroxy-2-methoxybenzamide]	activates HD-5					
COC(Cc1ccc(N)cc1)C(=O)O (racemic) [Compound R34, (±)-2-methoxy-3-(4′-aminophenyl)propionic acid]		induce the expression of hBD1	induction of defensin expression	induced	induced	
CCOC(Cc1cccc(N)c1)C(=O)O (racemic) [Compound 40, (±)-2-ethoxy-3-(3′-aminophenyl)propionic acid]	activates HD-5					
Nc1ccc(O)c(C(=O)O)c1 [Compound 5-ASA, 5-aminosalycilate, reference compound]	activates HD-5	induce the expression of hBD1	induction of defensin expression	induced	induced	antimicrobial effect against Clostridium bacterial cultures [1]: inhibitory effects; antimicrobial effect against colonies of Lactobacillus, Enterococcus or Bacteroides [2]: No effect
